Measurements as given in patent US20230085307A1, “PYRIDAZINONE COMPOUND AND HERBICIDE” (NISSAN CHEMICAL CORPORATION, priority 2019, published 2023).

Legend:
barnyard grass [1] = assay: Test Example 3: herbicidal effect by foliage application, Wagner pot (Table 18, symbol H); type: in vivo, barnyard grass (Echinochloa crus-galli)
How it was run: (§1)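 Plants were sown in alluvial soil held under 0.1–0.5 cm standing water and grown 14 days in a greenhouse at 25–30 °C. An emulsifiable formulation, water-diluted to the set dose, was then sprayed onto the foliage, and effects were scored three weeks later using previously defined criteria.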

Chinese sprangletop = assay: Test Example 3: herbicidal effect by foliage application, Wagner pot (Table 18, symbol D); type: in vivo, chinese sprangletop (Leptochloa chinensis)
How it was run: as §1

rice flat sedge = assay: Test Example 3: herbicidal effect by foliage application, Wagner pot (Table 18, symbol E); type: in vivo, rice flat sedge (Cyperus iria)
How it was run: as §1

southern crabgrass [2] = assay: Test Example 4: herbicidal effect by soil treatment (Table 19, symbol F); type: in vivo, southern crabgrass (Digitaria ciliaris)
How it was run: (§2)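 Scoring uses the grading scale of an earlier test, three weeks post-application. Treatment consists of spraying a diluted emulsion formulation across the surface of sterilized diluvial soil in which seeds are buried near 1.5 cm deep; boxes are kept in a greenhouse between 25° C. and 30° C.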

green foxtail [3] = assay: Test Example 4: herbicidal effect by soil treatment (Table 19, symbol G); type: in vivo, green foxtail (Setaria viridis)
How it was run: as §2

barnyard grass [4] = assay: Test Example 4: herbicidal effect by soil treatment (Table 19, symbol H); type: in vivo, barnyard grass (Echinochloa crus-galli)
How it was run: as §2

wild oat [5] = assay: Test Example 4: herbicidal effect by soil treatment (Table 19, symbol I); type: in vivo, wild oat (Avena fatua)
How it was run: as §2

blackgrass [6] = assay: Test Example 4: herbicidal effect by soil treatment (Table 19, symbol J); type: in vivo, blackgrass (Alopecurus myosuroides)
How it was run: as §2

Italian ryegrass [7] = assay: Test Example 4: herbicidal effect by soil treatment (Table 19, symbol K); type: in vivo, Italian ryegrass (Lolium multiflorum)
How it was run: as §2

windgrass [8] = assay: Test Example 4: herbicidal effect by soil treatment (Table 19, symbol L); type: in vivo, windgrass (Apera spica-venti)
How it was run: as §2

velvetleaf [9] = assay: Test Example 4: herbicidal effect by soil treatment (Table 19, symbol M); type: in vivo, velvetleaf (Abutilon theophrasti)
How it was run: as §2

redroot pigweed [10] = assay: Test Example 4: herbicidal effect by soil treatment (Table 19, symbol N); type: in vivo, redroot pigweed (Amaranthus retroflexus)
How it was run: as §2

lambsquarters [11] = assay: Test Example 4: herbicidal effect by soil treatment (Table 19, symbol O); type: in vivo, lambsquarters (Chenopodium album)
How it was run: as §2

false cleavers = assay: Test Example 4: herbicidal effect by soil treatment (Table 19, symbol Q); type: in vivo, false cleavers (Galium spurium)
How it was run: as §2

southern crabgrass [12] = assay: Test Example 5: herbicidal effect by foliage application, plastic box (Table 20, symbol F); type: in vivo, southern crabgrass (Digitaria ciliaris); conditions: evaluated three weeks after application
How it was run: (§3)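 Post-emergence foliar test in sterilized diluvial soil. Compound applied as water-diluted emulsion at a predetermined rate to 14-day-old plants; evaluation at three weeks.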

green foxtail [13] = assay: Test Example 5: herbicidal effect by foliage application, plastic box (Table 20, symbol G); type: in vivo, green foxtail (Setaria viridis); conditions: evaluated three weeks after application
How it was run: as §3

barnyard grass [14] = assay: Test Example 5: herbicidal effect by foliage application, plastic box (Table 20, symbol H); type: in vivo, barnyard grass (Echinochloa crus-galli); conditions: evaluated three weeks after application
How it was run: as §3

wild oat [15] = assay: Test Example 5: herbicidal effect by foliage application, plastic box (Table 20, symbol I); type: in vivo, wild oat (Avena fatua); conditions: evaluated three weeks after application
How it was run: as §3

blackgrass [16] = assay: Test Example 5: herbicidal effect by foliage application, plastic box (Table 20, symbol J); type: in vivo, blackgrass (Alopecurus myosuroides); conditions: evaluated three weeks after application
How it was run: as §3

Italian ryegrass [17] = assay: Test Example 5: herbicidal effect by foliage application, plastic box (Table 20, symbol K); type: in vivo, Italian ryegrass (Lolium multiflorum); conditions: evaluated three weeks after application
How it was run: as §3

windgrass [18] = assay: Test Example 5: herbicidal effect by foliage application, plastic box (Table 20, symbol L); type: in vivo, windgrass (Apera spica-venti); conditions: evaluated three weeks after application
How it was run: as §3

velvetleaf [19] = assay: Test Example 5: herbicidal effect by foliage application, plastic box (Table 20, symbol M); type: in vivo, velvetleaf (Abutilon theophrasti); conditions: evaluated three weeks after application
How it was run: as §3

redroot pigweed [20] = assay: Test Example 5: herbicidal effect by foliage application, plastic box (Table 20, symbol N); type: in vivo, redroot pigweed (Amaranthus retroflexus); conditions: evaluated three weeks after application
How it was run: as §3

lambsquarters [21] = assay: Test Example 5: herbicidal effect by foliage application, plastic box (Table 20, symbol O); type: in vivo, lambsquarters (Chenopodium album); conditions: evaluated three weeks after application
How it was run: as §3

chickweed = assay: Test Example 5: herbicidal effect by foliage application, plastic box (Table 20, symbol P); type: in vivo, common chickweed (Stellaria media); conditions: evaluated three weeks after application
How it was run: as §3

persian speedwell = assay: Test Example 5: herbicidal effect by foliage application, plastic box (Table 20, symbol R); type: in vivo, Persian speedwell (Veronica persica); conditions: evaluated three weeks after application
How it was run: as §3

[22] = amount of applied herbicide 310 g/ha
[23] = foliage application, AAH 310 g/ha
[24] = amount of applied herbicide 320 g/ha
[25] = 320 g/ha, foliage application after 14-day growth

SMILES: Cc1nn(C)c(=O)c(-c2c(-c3ccc(OC(F)F)cc3)sc3ccc(F)cc23)c1OC(=S)Oc1ccccc1 [2-297]
- herbicidal effect on H: barnyard grass (barnyard grass [1]; [22]): 5 (Herbicidal rate of 90% or more (almost completely withered))
- herbicidal effect on D: Chinese sprangletop (Chinese sprangletop; [22]): 0 (Herbicidal rate of 5% or less (almost no effect))
- herbicidal effect on E: rice flat sedge (rice flat sedge; [22]): 5 (Herbicidal rate of 90% or more (almost completely withered))
- herbicidal effect on F: southern crabgrass (southern crabgrass [2]; [22]): 3 (Herbicidal rate of 40% or more and less than 70%)
- herbicidal effect on G: green foxtail (green foxtail [3]; [22]): 4 (Herbicidal rate of 70% or more and less than 90%)
- herbicidal effect on H: barnyard grass (barnyard grass [4]; [22]): 4 (Herbicidal rate of 70% or more and less than 90%)
- herbicidal effect on I: wild oat (wild oat [5]; [22]): 0 (Herbicidal rate of 5% or less (almost no effect))
- herbicidal effect on J: blackgrass (blackgrass [6]; [22]): 3 (Herbicidal rate of 40% or more and less than 70%)
- herbicidal effect on K: Italian ryegrass (Italian ryegrass [7]; [22]): 5 (Herbicidal rate of 90% or more (almost completely withered))
- herbicidal effect on L: windgrass (windgrass [8]; [22]): 0 (Herbicidal rate of 5% or less (almost no effect))
- herbicidal effect on M: velvetleaf (velvetleaf [9]; [22]): 5 (Herbicidal rate of 90% or more (almost completely withered))
- herbicidal effect on N: redroot pigweed (redroot pigweed [10]; [22]): 5 (Herbicidal rate of 90% or more (almost completely withered))
- herbicidal effect on O: lambsquarters (lambsquarters [11]; [22]): 5 (Herbicidal rate of 90% or more (almost completely withered))
- herbicidal effect on Q: false cleavers (false cleavers; [22]): 0 (Herbicidal rate of 5% or less (almost no effect))
- F: southern crabgrass, herbicidal effect (criteria 0-5) (southern crabgrass [12]; [23]): 1 (Herbicidal rate of 5% or more and less than 20%)
- G: green foxtail, herbicidal effect (criteria 0-5) (green foxtail [13]; [23]): 5 (Herbicidal rate of 90% or more (almost completely withered))
- H: barnyard grass, herbicidal effect (criteria 0-5) (barnyard grass [14]; [23]): 5 (Herbicidal rate of 90% or more (almost completely withered))
- I: wild oat, herbicidal effect (criteria 0-5) (wild oat [15]; [23]): 2 (Herbicidal rate of 20% or more and less than 40%)
- J: blackgrass, herbicidal effect (criteria 0-5) (blackgrass [16]; [23]): 3 (Herbicidal rate of 40% or more and less than 70%)
- K: Italian ryegrass, herbicidal effect (criteria 0-5) (Italian ryegrass [17]; [23]): 5 (Herbicidal rate of 90% or more (almost completely withered))
- L: windgrass, herbicidal effect (criteria 0-5) (windgrass [18]; [23]): 0 (Herbicidal rate of 5% or less (almost no effect))
- M: velvetleaf, herbicidal effect (criteria 0-5) (velvetleaf [19]; [23]): 5 (Herbicidal rate of 90% or more (almost completely withered))
- N: redroot pigweed, herbicidal effect (criteria 0-5) (redroot pigweed [20]; [23]): 5 (Herbicidal rate of 90% or more (almost completely withered))
- O: lambsquarters, herbicidal effect (criteria 0-5) (lambsquarters [21]; [23]): 5 (Herbicidal rate of 90% or more (almost completely withered))
- P: chickweed, herbicidal effect (criteria 0-5) (chickweed; [23]): 5 (Herbicidal rate of 90% or more (almost completely withered))
- R: persian speedwell, herbicidal effect (criteria 0-5) (persian speedwell; [23]): 5 (Herbicidal rate of 90% or more (almost completely withered))

SMILES: Cc1nn(C)c(=O)c(-c2c(-c3ccc(Cl)cc3)sc3c(Cl)cccc23)c1O [4-017]
- herbicidal effect on barnyard grass (H) (barnyard grass [1]; 320 g/ha): 4 (Herbicidal rate of 70% or more and less than 90%)
- herbicidal effect on Chinese sprangletop (D) (Chinese sprangletop; 320 g/ha): 0 (Herbicidal rate of 5% or less (almost no effect))
- herbicidal effect on rice flat sedge (E) (rice flat sedge; 320 g/ha): 3 (Herbicidal rate of 40% or more and less than 70%)
- Herbicidal effect by soil treatment, F: southern crabgrass (southern crabgrass [2]; [24]): 0 (Herbicidal rate of 5% or less (almost no effect))
- Herbicidal effect by soil treatment, G: green foxtail (green foxtail [3]; [24]): 0 (Herbicidal rate of 5% or less (almost no effect))
- Herbicidal effect by soil treatment, H: barnyard grass (barnyard grass [4]; [24]): 0 (Herbicidal rate of 5% or less (almost no effect))
- Herbicidal effect by soil treatment, I: wild oat (wild oat [5]; [24]): 0 (Herbicidal rate of 5% or less (almost no effect))
- Herbicidal effect by soil treatment, J: blackgrass (blackgrass [6]; [24]): 0 (Herbicidal rate of 5% or less (almost no effect))
- Herbicidal effect by soil treatment, K: Italian ryegrass (Italian ryegrass [7]; [24]): 0 (Herbicidal rate of 5% or less (almost no effect))
- Herbicidal effect by soil treatment, L: windgrass (windgrass [8]; [24]): 2 (Herbicidal rate of 20% or more and less than 40%)
- Herbicidal effect by soil treatment, M: velvetleaf (velvetleaf [9]; [24]): 0 (Herbicidal rate of 5% or less (almost no effect))
- Herbicidal effect by soil treatment, N: redroot pigweed (redroot pigweed [10]; [24]): 0 (Herbicidal rate of 5% or less (almost no effect))
- Herbicidal effect by soil treatment, O: lambsquarters (lambsquarters [11]; [24]): 0 (Herbicidal rate of 5% or less (almost no effect))
- Herbicidal effect by soil treatment, Q: false cleavers (false cleavers; [24]): 0 (Herbicidal rate of 5% or less (almost no effect))
- herbicidal effect on F: southern crabgrass (evaluation grade 0-5) (southern crabgrass [12]; [25]): 0 (Herbicidal rate of 5% or less (almost no effect))
- herbicidal effect on G: green foxtail (evaluation grade 0-5) (green foxtail [13]; [25]): 0 (Herbicidal rate of 5% or less (almost no effect))
- herbicidal effect on H: barnyard grass (evaluation grade 0-5) (barnyard grass [14]; [25]): 0 (Herbicidal rate of 5% or less (almost no effect))
- herbicidal effect on I: wild oat (evaluation grade 0-5) (wild oat [15]; [25]): 3 (Herbicidal rate of 40% or more and less than 70%)
- herbicidal effect on J: blackgrass (evaluation grade 0-5) (blackgrass [16]; [25]): 3 (Herbicidal rate of 40% or more and less than 70%)
- herbicidal effect on K: Italian ryegrass (evaluation grade 0-5) (Italian ryegrass [17]; [25]): 1 (Herbicidal rate of 5% or more and less than 20%)
- herbicidal effect on L: windgrass (evaluation grade 0-5) (windgrass [18]; [25]): 4 (Herbicidal rate of 70% or more and less than 90%)
- herbicidal effect on M: velvetleaf (evaluation grade 0-5) (velvetleaf [19]; [25]): 4 (Herbicidal rate of 70% or more and less than 90%)
- herbicidal effect on N: redroot pigweed (evaluation grade 0-5) (redroot pigweed [20]; [25]): 5 (Herbicidal rate of 90% or more (almost completely withered))
- herbicidal effect on O: lambsquarters (evaluation grade 0-5) (lambsquarters [21]; [25]): 2 (Herbicidal rate of 20% or more and less than 40%)
- herbicidal effect on P: chickweed (evaluation grade 0-5) (chickweed; [25]): 5 (Herbicidal rate of 90% or more (almost completely withered))
- herbicidal effect on R: persian speedwell (evaluation grade 0-5) (persian speedwell; [25]): 4 (Herbicidal rate of 70% or more and less than 90%)
